The target of data set [1] is T1, p38 MAPKα isoform (MAPK14: Invitrogen) (Homo sapiens, UniProt Q16539).
T1 construct: purchased Invitrogen
Nature of the data set: p38 MAPKα enzyme inhibition assay (FRET, Z-LYTE, via MAPKAP-K2 activation). It counts as biochemical. The following applies: 2 hr pre-incubation, ATP 10.0 μM; read-out: Enzyme Inhibition IC50 p38α.

The target in data set [2] is T2, Recombinant, phosphorylated p38 MAPKγ (MAPK12:Invitrogen) (Homo sapiens, UniProt P53778).
T2 construct: purchased Invitrogen
T2 sequence (P53778 1-367): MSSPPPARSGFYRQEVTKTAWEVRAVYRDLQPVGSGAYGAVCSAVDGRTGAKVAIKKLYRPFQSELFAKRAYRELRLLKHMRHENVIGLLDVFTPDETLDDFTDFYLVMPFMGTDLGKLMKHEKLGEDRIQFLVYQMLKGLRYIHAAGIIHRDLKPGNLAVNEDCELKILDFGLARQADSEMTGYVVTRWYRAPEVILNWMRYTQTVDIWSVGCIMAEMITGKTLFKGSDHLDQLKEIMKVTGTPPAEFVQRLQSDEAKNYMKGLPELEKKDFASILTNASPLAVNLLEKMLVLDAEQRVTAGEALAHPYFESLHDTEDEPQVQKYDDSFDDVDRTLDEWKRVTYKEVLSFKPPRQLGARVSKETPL
In words: p38 MAPKγ enzyme inhibition assay (FRET, Z-LYTE). It counts as biochemical. The following applies: 2 hr pre-incubation, ATP 100 μM; read-out: Enzyme Inhibition IC50 p38γ.

Data set [3] relates to LPS-induced TNFα release in THP-1 cells. In words: LPS-induced TNFα release in THP-1 cells. The following applies: Homo sapiens, 3 μg/mL LPS, 4 hr. Format: cell-based. A digest of the protocol: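 Human monocytic cells were stimulated with 3 μg/mL E. coli LPS for 4 hr. Supernatant TNFα was measured by sandwich ELISA. Inhibition was taken relative to vehicle control, and IC50 derived from the concentration-response curve.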

For data set [4], the system named is LPS-induced TNFα release in d-U937 cells. Nature of the data set: LPS-induced TNFα release in d-U937 cells. It counts as cell-based. Conditions: Homo sapiens, dU937, 4 h; read-out: LPS/TNFα REC50 d-U937. A digest of the protocol:
(§1)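 U937 cells differentiated with PMA (100 ng/mL, 48–72 hr), pre-incubated with compound 2 hr, then stimulated with 0.1 μg/mL E. coli O111:B4 LPS for 4 hr. Supernatant TNFα and IL-8 measured by sandwich ELISA; REC50 (TNFα) and IC50 (IL-8 inhibition vs vehicle) taken from concentration-response curves.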

The test system of data set [5] is LPS-induced IL-8 release in d-U937 cells. In words: LPS-induced IL-8 release in d-U937 cells. It counts as cell-based. Conditions: Homo sapiens, dU937, 0.1 μg/mL LPS, 4 hr. The essentials:
as §1

Data set [6] has as its system Poly I:C-induced ICAM-1 expression in BEAS2B cells. Nature of the data set: Poly I:C-induced ICAM-1 induction in BEAS2B cells. It counts as cell-based. The following applies: Homo sapiens, BEAS-2B, poly I:C 1 μg/mL, 18 hr, read-out: PolyI:C/ICAM1 IC50 BEAS2B. The essentials:
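Human bronchial epithelial BEAS2B cells were pre-incubated with compound for 2 h, then transfected with poly I:C at 1 μg/mL. Surface ICAM-1 was measured 18 h later by cell-based ELISA (OD450–655), normalised to crystal-violet cell number (OD595). IC50 was taken from the concentration–response curve against vehicle.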

For data set [7], the system named is Differentiated U937 cells. Nature of the data set: MTT assay: cell viability on exposure to test compounds. Format: cell-based, human. Conditions: percentage loss of cell viability vs vehicle; for MTT Assay (Viability) 4 h d-U937: 5% FCS; for MTT Assay (Viability) 24 h d-U937: 10% FCS. A digest of the protocol: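 Differentiated U937 cells were pre-incubated with compound for either 4 h in 5% FCS or 24 h in 10% FCS, then given MTT for 1 h. Formazan was dissolved in DMSO and read at 550 nm. Viability loss is expressed as % versus 0.5% DMSO vehicle, so an apparent gain appears as a negative value.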

Marks after values point to notes of the source that are not given here.

The values that follow come from US9024041B2, “P38 MAP kinase inhibitors” (Respivert Ltd., priority 2010, dated 2015).

T1 sequence (Q16539 whole entry, canonical isoform): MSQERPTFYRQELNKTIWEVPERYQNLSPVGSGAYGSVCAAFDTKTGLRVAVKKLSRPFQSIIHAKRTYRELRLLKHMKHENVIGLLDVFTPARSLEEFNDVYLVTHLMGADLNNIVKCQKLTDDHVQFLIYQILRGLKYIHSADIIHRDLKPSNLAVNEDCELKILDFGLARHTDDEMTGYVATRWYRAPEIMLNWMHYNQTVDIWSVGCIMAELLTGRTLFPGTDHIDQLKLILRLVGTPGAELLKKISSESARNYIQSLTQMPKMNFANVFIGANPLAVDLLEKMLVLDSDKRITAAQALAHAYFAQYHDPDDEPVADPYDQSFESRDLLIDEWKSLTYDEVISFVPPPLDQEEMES

`CNC(=O)Nc1cc(COc2ccc(NC(=O)Nc3cc(C(C)(C)C)nn3-c3ccc(OC)cc3)c(C)c2C)ccn1` [Example 60, 1-(4-((4-(3-(3-tert-butyl-1-(4-methoxyphenyl)-1H-pyrazol-5-yl)ureido)-2,3-dimethylphenoxy)methyl)pyridin-2-yl)-3-methylurea]: the IC50 was 13 nM in data set [1]; above 17500 nM in data set [2]; 122 nM in data set [3]; 364 nM in data set [5]; above 175 nM in data set [6]. Besides, in data set [4], the EC50 worked out at 24.3 nM. In addition, the “MTT Assay (Viability) 4 h d-U937” value in data set [7] (1 μg/mL) is reported as 17.2%. In addition, the “MTT Assay (Viability) 24 h d-U937” value in data set [7] (1 μg/mL) was −0.2%.
Take `COc1ccc(-n2nc(C(C)(C)C)cc2NC(=O)Nc2ccc(Oc3ccnc(NC(=O)N4CCN(C)CC4)c3)c3ccccc23)cc1` [Example 10, N-(4-(4-(3-(3-tert-Butyl-1-(4-methoxyphenyl)-1H-pyrazol-5-yl)ureido)naphthalen-1-yloxy)pyridin-2-yl)-4-methyl piperazine-1-carboxamide]: the IC50 in data set [1] was 4.7 nM; in data set [2], 104 nM; in data set [3], 1.6 nM; in data set [5] it was 2.3 nM; in data set [6], 3.5 nM. The EC50 in data set [4] is 1.5 nM. Besides, in data set [7] (1 μg/mL), the “MTT Assay (Viability) 4 h d-U937” value is −12.5%. For the same compound, the “MTT Assay (Viability) 24 h d-U937” value in data set [7] (1 μg/mL) is recorded as −21.2%.
In the case of `COc1ccc(-n2nc(C(C)(C)C)cc2NC(=O)Nc2ccc(Oc3ccnc(NC(=O)N4CCOCC4)c3)c3ccccc23)cn1` [Example 40, N-(4-(4-(3-(3-tert-butyl-1-(6-methoxypyridin-3-yl)-1H-pyrazol-5-yl)ureido)naphthalen-1-yloxy)pyridin-2-yl)morpholine-4-carboxamide], the IC50 in data set [1] came out at 15.6 nM; in data set [2] it was 113 nM; in data set [3] it was 1.5 nM; in data set [5] it was 6.2 nM; in data set [6], 4.8 nM. In addition, in data set [4], the EC50 was determined as 0.9 nM. The “MTT Assay (Viability) 4 h d-U937” value in data set [7] (1 μg/mL) is recorded as −12.1%. Further, in data set [7] (1 μg/mL), the “MTT Assay (Viability) 24 h d-U937” value was −12.0%.
As to `COCCOCC(=O)Nc1cc(Cc2ccc(NC(=O)Nc3cc(C(C)(C)C)nn3-c3ccc(C)cc3)c3ccccc23)ccn1` [Example 65, N-(4-((4-(3-(3-tert-butyl-1-p-tolyl-1H-pyrazol-5-yl)ureido)naphthalen-1-yl)methyl)pyridin-2-yl)-2-(2-methoxyethoxy)acetamide], the IC50 in data set [1] worked out at 1.2 nM; in data set [2] it was 275 nM; in data set [3], 10.7 nM; in data set [5], 18.9 nM; in data set [6], 62.7 nM. In addition, the EC50 in data set [4] worked out at 10.9 nM. Further, in data set [7] (10 μg/mL), the “MTT Assay (Viability) 4 h d-U937” value is recorded as −1.5^b %. The “MTT Assay (Viability) 24 h d-U937” value in data set [7] (10 μg/mL) was 55.9^b %.
Turning to `COCC(=O)Nc1cc(C(=O)c2ccc(NC(=O)Nc3cc(C(C)(C)C)nn3-c3ccc(C)cc3)c3ccccc23)ccn1` [Example 66, N-(4-(4-(3-(3-tert-butyl-1-p-tolyl-1H-pyrazol-5-yl)ureido)-1-naphthoyl)pyridin-2-yl)-2-methoxyacetamide], the IC50 in data set [1] was 7.3 nM; in data set [2], 7360 nM; in data set [3], 2.9 nM; in data set [5], 171 nM; in data set [6], 48.4 nM. For the same compound, the EC50 in data set [4] was found to be 1 nM. The “MTT Assay (Viability) 4 h d-U937” value in data set [7] (10 μg/mL) is listed as 11.0^b %. The “MTT Assay (Viability) 24 h d-U937” value in data set [7] (10 μg/mL) is 71.1^b %.
For the compound `COCC(=O)Nc1cc(Oc2ccc(NC(=O)Nc3cc(C(C)(C)C)nn3-c3ccc(SC)cc3)c3ccccc23)ccn1` [Example 44, N-(4-(4-(3-(3-tert-butyl-1-(4-(methylthio)phenyl)-1H-pyrazol-5-yl)ureido)naphthalen-1-yloxy)pyridin-2-yl)-2-methoxyacetamide], the IC50 in data set [1] came to 15.1 nM; in data set [2], 194 nM; in data set [3] it was 1.2 nM; in data set [5], 5.9 nM; in data set [6], 7.5 nM. For the same compound, in data set [4], the EC50 worked out at 0.1 nM. Also, the “MTT Assay (Viability) 4 h d-U937” value in data set [7] (1 μg/mL) is listed as −4.0%. For the same compound, the “MTT Assay (Viability) 24 h d-U937” value in data set [7] (1 μg/mL) was −16.4%.
For `CNC(=O)Nc1cc(Oc2ccc(NC(=O)Nc3cc(C(C)(C)C)nn3-c3ccc(O)cc3)c3ccccc23)ccn1` [Example 33, 1-(3-tert-butyl-1-(4-hydroxyphenyl)-1H-pyrazol-5-yl)-3-(4-(2-(3-methylureido)pyridin-4-yloxy)naphthalen-1-yl)urea], the IC50 in data set [1] came out at 5.3 nM; in data set [2] it was 180 nM; in data set [3], 1 nM; in data set [5], 7 nM; in data set [6] it was 4.4 nM. The EC50 in data set [4] came out at 0.7 nM. In data set [7] (1 μg/mL), the “MTT Assay (Viability) 4 h d-U937” value is on record as −1.3%. Further, the “MTT Assay (Viability) 24 h d-U937” value in data set [7] (1 μg/mL) was −24.1%.
Turning to `CNC(=O)Nc1cc(Oc2ccc(NC(=O)Nc3cc(C(C)(C)C)nn3-c3ccc(OC)cc3)c(C)c2C)ccn1` [Example 37, 1-(4-(4-(3-(3-tert-butyl-1-(4-methoxyphenyl)-1H-pyrazol-5-yl)ureido)-2,3-dimethylphenoxy)pyridin-2-yl)-3-methylurea], the IC50 in data set [1] worked out at 29.1 nM; in data set [2] it was 117 nM; in data set [3], 1.5 nM; in data set [5], 18.1 nM; in data set [6], 2.6 nM. Further, the EC50 in data set [4] amounted to 1.4 nM. Besides, the “MTT Assay (Viability) 4 h d-U937” value in data set [7] (1 μg/mL) is 5.3%. Also, the “MTT Assay (Viability) 24 h d-U937” value in data set [7] (1 μg/mL) is on record as 42.7%.
As for `COCC(=O)Nc1cc(Oc2ccc(NC(=O)Nc3cc(C4(C)CCCCC4)nn3-c3ccc(C)cc3)c3ccccc23)ccn1` [Example 26, 2-methoxy-N-(4-(4-(3-(3-(1-methylcyclohexyl)-1-p-tolyl-1H-pyrazol-5-yl)ureido)naphthalen-1-yloxy)pyridin-2-yl)acetamide], the IC50 worked out at 48.2 nM in data set [1]; 779 nM in data set [2]; 3.5 nM in data set [3]; 1 nM in data set [5]; 4.4 nM in data set [6]. For the same compound, the EC50 in data set [4] was 0.4 nM. In data set [7] (1 μg/mL), the “MTT Assay (Viability) 4 h d-U937” value is listed as −27.9%. Moreover, the “MTT Assay (Viability) 24 h d-U937” value in data set [7] (1 μg/mL) is listed as −33.2%.
For `CNC(=O)Nc1cc(COc2ccc(NC(=O)Nc3cc(C(C)(C)C)nn3-c3ccc(OC)nc3)c(C)c2C)ccn1` [Example 63, 1-(4-((4-(3-(3-tert-butyl-1-(6-methoxypyridin-3-yl)-1H-pyrazol-5-yl)ureido)-2,3-dimethylphenoxy)methyl)pyridin-2-yl)-3-methylurea], the IC50 was 16.2 nM in data set [1]; above 17500 nM in data set [2]; 28.3 nM in data set [3]; 125 nM in data set [5]; 178 nM in data set [6]. In data set [4], the EC50 turned out to be 26.3 nM. For the same compound, the “MTT Assay (Viability) 4 h d-U937” value in data set [7] (1 μg/mL) worked out at 32.5%. The “MTT Assay (Viability) 24 h d-U937” value in data set [7] (1 μg/mL) amounted to 21.2%.
On to `COCC(=O)Nc1cc(Oc2ccc(NC(=O)Nc3cc(C(C)(C)C)nn3-c3ccc(O)nc3)c3ccccc23)ccn1.Cl` [Example 17, N-(4-(4-(3-(3-tert-Butyl-1-(6-hydroxypyridin-3-yl)-1H-pyrazol-5-yl)ureido)naphthalen-1-yloxy)pyridin-2-yl)-2-methoxyacetamide], for which the IC50 in data set [1] was 14.3 nM; in data set [2] it was 76.3 nM; in data set [3] it was 2 nM; in data set [5] it was 24.5 nM; in data set [6] it was 25.3 nM. Besides, the EC50 in data set [4] was determined as 1.4 nM. The “MTT Assay (Viability) 4 h d-U937” value in data set [7] (1 μg/mL) is given as −6.1%. Also, the “MTT Assay (Viability) 24 h d-U937” value in data set [7] (1 μg/mL) was −7.6%.
